Where two headings read alike, the source gives them in different places.
Assays:
[1] = target: biotinylated r(G4C2)8 RNA and hnRNP H1-His6; assay: TR-FRET hnRNP H binding assay
Procedure, shortened: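 Biotinylated r(G4C2)8 RNA (80 nM), heat-folded at 95 °C then slowly cooled, was preincubated 15 min with compound before hnRNP H1-His6 (75 nM) was added. After 15 min, streptavidin-XL665 (40 nM) and anti-His6-Tb (0.44 ng/μL) were added and TR-FRET was read after 1 h. IC50 was obtained by curve fitting.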

[2] = system: RAN translation of (G4C2)66-No ATG-GFP in HEK293T cells; assay: Cell-based assay of RAN translation inhibition (GFP/mCherry reporter); conditions: Homo sapiens, HEK-293T, 24 h, read-out: RANT IC25
[3] = Table F, HEK293T, 24 h treatment
[4] = Table D, HEK293T, 24 h treatment

Row | Structure (SMILES) | Ki ([1]; Table F) [nM] | IC25 [2, 3] [nM] | Ki ([1]; Table D) [nM] | IC25 [2, 4] [nM] | IC25 [2] [nM]
1 | Cc1c2ccncc2cc2c3cc(OCC4=NCCN4)ccc3n(CCC(C)C)c12 [Compound 249, 9-(4,5-dihydro-1H-imidazol-2-ylmethoxy)-6-isopentyl-5-methyl-pyrido[4,3-b]carbazole] | 22000 | > 5000 | – | – | –
2 | COc1ccc2c(c1)c1cc3c(C(=O)NCCCN(C)C)nccc3c(C)c1n2C [Example 29, N-(3-(dimethylamino)propyl)-9-methoxy-5,6-dimethyl-6H-pyrido[4,3-b]carbazole-1-carboxamide] | – | – | 17000 | 740 | –
3 | CCN(CC)CCOc1ccc2c(c1)c1cc3cnccc3c(C)c1n2C [Example 33, 2-((5,6-dimethyl-6H-pyrido[4,3-b]carbazol-9-yl)oxy)-N,N-diethylethanamine] | – | – | 5200 | – | 3700
4 | Cc1c2ccncc2cc2c1oc1ccc(OCCN3CCOCC3)cc12 [Compound 231, 5-methyl-9-(2-morpholinoethoxy)benzofuro[2,3-g]isoquinoline] | > 200000 | – | – | – | > 5000
5 | CCn1c2ccc(OCC3=NCCN3)cc2c2cc3cnccc3cc21 [Compound 255, 9-(4,5-dihydro-1H-imidazol-2-ylmethoxy)-6-ethyl-pyrido[4,3-b]carbazole] | 8800 | 1250 | – | – | –
6 | Cc1c2ccncc2cc2c3cc(OCCN4CCOCC4)ccc3n(C)c12 [Compound 11, 4-(2-((5,6-dimethyl-6H-pyrido[4,3-b]carbazol-9-yl)oxy)ethyl)morpholine] | – | – | 16000 | 400 | –
7 | Cc1c2cnccc2cc2c3cc(OCC4=NCCN4)ccc3n(C)c12 [Example 83, 7-(4,5-dihydro-1H-imidazol-2-ylmethoxy)-10,11-dimethyl-pyrido[3,4-b]carbazole] | – | – | 2300 | 1100 | –
8 | Cc1c2ccncc2cc2c3cc(C(=O)N(C)C)ccc3n(C)c12 [Example 71, N,N,5,6-tetramethyl-6H-pyrido[4,3-b]carbazole-9-carboxamide] | – | – | 107000 | > 5000 | –
9 | Cc1c2ccncc2cc2c3cc(OC[C@H]4CCCN4)ccc3n(C)c12 [Example 38, (R)-5,6-dimethyl-9-(pyrrolidin-2-ylmethoxy)-6H-pyrido[4,3-b]carbazole] | – | – | 760 | 740 | –
10 | COc1ccc2c(c1)c1cc3c(C(=O)NCCN(C)C)nccc3c(C)c1n2C [Example 28, N-[2-(dimethylamino)ethyl]-9-methoxy-5,6-dimethyl-pyrido[4,3-b]carbazole-1-carboxamide] | – | – | 8100 | 640 | –
11 | Cc1c2ccncc2cc2c3cc(OCc4nccn4C)ccc3n(C)c12 [Example 35, 5,6-dimethyl-9-((1-methyl-1H-imidazol-2-yl)methoxy)-6H-pyrido[4,3-b]carbazole] | – | – | 38000 | > 5000 | –
12 | Cc1c2ccncc2cc2c3cc(OC[C@@H]4CCCN4)ccc3n(C)c12 [Example 39, (S)-5,6-dimethyl-9-(pyrrolidin-2-ylmethoxy)-6H-pyrido[4,3-b]carbazole] | – | – | 800 | 1300 | –
13 | Cc1c2ccnc(C(=O)N[C@H](C)CN(C)C)c2cc2c3cccc(OCCCN4CCN(C)CC4)c3n(C)c12 [Compound 253, (R)—N-(1-(dimethylamino)propan-2-yl)-5,6-dimethyl-7-(3-(4-methylpiperazin-1-yl)propoxy)-6H-pyrido[4,3-b]carbazole-1-carboxamide] | 14000 | > 5000 | – | – | –
14 | Cc1c2ccncc2cc2c3cc(OCCN4CCN(C)CC4)ccc3n(C)c12 [Example 30, 5,6-dimethyl-9-(2-(4-methylpiperazin-1-yl)ethoxy)-6H-pyrido[4,3-b]carbazole] | – | – | 2500 | 2200 | –
15 | Cc1c2ccncc2cc2c3cc(OCC4=NCCN4)ccc3n(C)c12 [Compound 3, 9-((4,5-dihydro-1H-imidazol-2-yl)methoxy)-5,6-dimethyl-6H-pyrido[4,3-b] carbazole] | – | – | 8300 | 100 | –
16 | Cc1c2ccnc(C(=O)N[C@H](C)CN(C)C)c2cc2c3cc(OCCCN4CCN(C)CC4)ccc3n(C)c12 [Example 26, (R)—N-(1-(dimethylamino)propan-2-yl)-5,6-dimethyl-9-(3-(4-methylpiperazin-1-yl)propoxy)-6H-pyrido[4,3-b]carbazole-1-carboxamide] | – | – | 5900 | 570 | –
17 | CCn1c2ccc(OCC3=NCCN3)cc2c2cc3cnccc3c(C)c21 [Example 63, 9-((4,5-dihydro-1H-imidazol-2-yl)methoxy)-6-ethyl-5-methyl-6H-pyrido[4,3-b]carbazole] | – | – | 1800 | 4800 | –
18 | Cn1c2ccc(OCC3=NCCN3)cc2c2cc3cnccc3cc21 [Compound 234, 9-((4,5-dihydro-1H-imidazol-2-yl)methoxy)-6-methyl-6H-pyrido[4,3-b]carbazole] | 800 | 650 | – | – | –
19 | Cc1c2ccncc2cc2c3cc(OCC(=O)N(C)C)ccc3n(C)c12 [Example 57, 2-((5,6-dimethyl-6H-pyrido[4,3-b]carbazol-9-yl)oxy)-N,N-dimethylacetamide] | – | – | 5200 | 4000 | –
20 | Cc1c2ccncc2cc2c3cc(OCCN(C)C)ccc3n(C)c12 [Compound 5] | – | – | 20000 | 500 | –
21 | Cc1c2ccncc2cc2c3cc(C(=O)NCCN4CCCCC4)ccc3n(C)c12 [Compound 213, 5,6-dimethyl-N-(2-(piperidin-1-yl)ethyl)-6H-pyrido[4,3-b]carbazole-9-carboxamide] | 1200 | 1700 | – | – | –
22 | Cc1c2ccncc2cc2c3cc(OCCN4CCOCC4)ccc3n(CCC(C)C)c12 [Compound 248, 4-(2-((6-isopentyl-5-methyl-6H-pyrido[4,3-b]carbazol-9-yl)oxy)ethyl)morpholine] | > 200000 | – | – | – | > 5000
23 | CN(C)CCOc1ccc2c(c1)c1cc3cnccc3cc1n2C [Compound 237, N,N-dimethyl-2-((6-methyl-6H-pyrido[4,3-b]carbazol-9-yl)oxy)ethanamine] | 3600 | – | – | – | 2000
24 | Cc1c2ccncc2cc2c3cc(OC[C@@H](C)N(C)C)ccc3n(C)c12 [Compound 242, (R)-1-((5,6-dimethyl-6H-pyrido[4,3-b]carbazol-9-yl)oxy)-N,N-dimethylpropan-2-amine] | 500 | 1500 | – | – | –
25 | Cc1c2ccncc2cc2c3cc(OCCCN4CCN(C)CC4)ccc3n(C)c12 [Compound 23, 5,6-dimethyl-9-(3-(4-methylpiperazin-1-yl)propoxy)-6H-pyrido[4,3-b]carbazole] | – | – | 9400 | > 5000 | –
26 | Cc1c2ccncc2cc2c3cc(OCC4=NCCN4C)ccc3n(C)c12 [Example 41, 5,6-dimethyl-9-((1-methyl-4,5-dihydro-1H-imidazol-2-yl)methoxy)-6H-pyrido[4,3-b]carbazole] | – | – | 600 | 670 | –
27 | Cc1c2ccncc2cc2c3cc(OCC(=O)NCCN)ccc3n(C)c12 [Compound 4a, N-(2-aminoethyl)-2-((5,6-dimethyl-6H-pyrido[4,3-b]carbazol-9-yl)oxy)acetamide] | – | – | 4500 | 900 | –
28 | CNCCNC(=O)c1ccc2c(c1)c1cc3cnccc3c(C)c1n2C [Example 73, 5,6-dimethyl-N-(2-(methylamino)ethyl)-6H-pyrido[4,3-b]carbazole-9-carboxamide] | – | – | 13000 | 840 | –
29 | Cc1c2ccncc2cc2c3ccc(OCC4=NCCN4)cc3n(C)c12 [Example 52, 8-((4,5-dihydro-1H-imidazol-2-yl)methoxy)-5,6-dimethyl-6H-pyrido[4,3-b]carbazole] | – | – | 5600 | 3100 | –

Source: patent publication US20240067639A1, “SMALL MOLECULES THAT TARGET THE RNA THAT CAUSES ALS” (EXPANSION THERAPEUTICS, INC., priority 2020, published 2024)
